Results published in patent US20110071198A1 (priority 2008, published 2011).
Like-named read-outs stand apart in the source and are kept apart here. One block for each molecule: values may come before it.

Legend:
[1] = literature; cited from earlier work
cPLA2 = format: cell-based; details: pretreatment of cells
[2] = test system: differentiated THP-1 macrophages; details: 200 μM for 10 minutes; data not shown
[3] = nicotinic acid therapy; cited from earlier work
Langerhans cells = details: 10 μM for 10 minutes
Protocol: Data are mean±SEM of 3 independent experiments.
The plates were transferred on ice, and cells were washed twice with ice-cold PBS and then scraped in PBS containing complete protease inhibitor cocktail (Roche Applied Sciences). Cells were lysed by brief sonication and then centrifuged at 3,000 g for 5 minutes to remove unbroken cells and nuclear fractions. Subsequently, the supernatant was centrifuged at 21,000 g for 30 minutes to separate the membrane fraction (in the pellet) and cytosolic fraction (in the supernatant). The membrane pellet was resuspended in PBS, proteins in the membrane and the cytosolic fractions were measured by Bradford assay, and β-arrestins were detected by Western blot analysis.

[4] = Mouse cutaneous flushing assay (laser Doppler perfusion of ventral ear); format: in vivo, mice; details: i.p. 100 mg/kg
Protocol: FIGS. 8A-8E. […] Animal use and protocols. […] The animals were euthanized 30 minutes later. Serum was collected and stored at −80° C. […] Readings were continually recorded for 30 minutes.

[5] = i.p. 10, 50 or 100 mg/kg; wild-type C57BL/6, β-arrestin1-deficient and β-arrestin2-deficient mice
Protocol: (§1) FIG. 7. […] Animal use and protocols. All animal studies were reviewed and approved by the Duke University Internal Animal Care and Use Committee. […] Age- and weight-matched male mice over 12 weeks of age were used in all experiments. […] The animals were euthanized 30 minutes later. Serum was collected and stored at −80° C. […] After 10 minutes, the mice were placed under an LDPI laser Doppler (PeriScan PIM II; Perimed). The right ear was everted to expose the anterior/ventral surface. The laser Doppler was focused on the central portion of the ventral ear. Data were collected using the repeated data collection mode with a 5-mm×5-mm image size, a 10-second delay, and high-resolution scan. […] Readings were continually recorded for 30 minutes. As a control, each animal was subsequently treated with 4 mg/kg PGD2 dissolved in PBS.

[6] = parameters: species or system mice; details: mouse, in vivo
Protocol: FIG. 10. […]. Perfusion of the ventral ear in age and weight matched wild-type C57B1/6 mice was measured with laser doppler. […] The first dose was 25 mg/kg, the second dose was 50 mg/kg and the third dose was 100 mg/kg. Wild-type (rechallenge) mice received all three doses of nicotinic acid and wild-type (control) mice received the first dose of nicotinic acid followed by two subsequent doses with vehicle alone. Plotted values represent the mean change in perfusion as a function of time from 8 animals.

peritoneal macrophages = details: 200 μM, 10 minutes
Protocol: as §1, with “FIGS. 8A-8E. […] Data are mean±SEM for change in perfusion as a function of time. […] (FIG. 8D) Maximum response to PGD2, plotted as mean±SEM (n=15−25 per condition). […] Thioglycollate-elicited peritoneal macrophages were loaded with H3-arachidonic acid (H3-AA) for 24 hours, and then rinsed to remove arachidonic acid not incorporated into cell membrane lipids.” for “FIG. 7.”

GPR109A [7] = target: T1, GPR109A (Homo sapiens, UniProt Q8TDS4); test: Phosphorylated ERK immunoblotting in HEK-293 cells; format: cell-based; details: GPR109A-expressing cells
T1 construct: expressed in transfected cells; plus Zeocin with ICUE2

GPR109A [8] = target: T1, GPR109A; test: ICUE cAMP assay in HEK-293 cells expressing FLAG-GPR109A and ICUE2 biosensor; format: cell-based
Protocol: ICUE cAMP assay. […] Experiments were performed on a NOVOstar plate reader (BMG Labtech).

T1 sequence (Q8TDS4 whole entry, species assumed): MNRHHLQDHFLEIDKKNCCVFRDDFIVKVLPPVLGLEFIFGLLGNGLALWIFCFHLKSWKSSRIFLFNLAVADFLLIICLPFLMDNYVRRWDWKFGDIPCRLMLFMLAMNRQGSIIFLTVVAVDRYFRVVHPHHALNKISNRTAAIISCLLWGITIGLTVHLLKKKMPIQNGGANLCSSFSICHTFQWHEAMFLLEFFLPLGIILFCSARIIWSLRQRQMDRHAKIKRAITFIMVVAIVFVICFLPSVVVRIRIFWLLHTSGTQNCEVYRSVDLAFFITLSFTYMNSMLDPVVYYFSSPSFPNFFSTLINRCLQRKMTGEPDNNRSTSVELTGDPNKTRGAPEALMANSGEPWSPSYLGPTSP

Molecule: C1Cc2[nH]nc(-c3nn[nH]n3)c2C1 [MK-0354]
cutaneous flushing [1]: do not induce cutaneous flushing | serum FFAs [1]: decrease serum FFAs

Molecule: COc1cccc(-c2cc(=O)c3ccccc3o2)c1N [PD98059]
basal level of phosphorylated cPLA2 after pretreatment (cPLA2): substantially increased

nicotinic acid-stimulated increase in perfusion in β-arrestin1-deficient mice ([4]; versus wild type): dramatically decreased | perfusion of the ventral ear ([4]; wild-type and β-arrestin2-deficient mice): dramatic increase in perfusion | tachyphylaxis to cutaneous vasodilation/flushing [6]: rapid tachyphylaxis
Molecule: O=C(O)c1cccnc1 [nicotinic acid, Nicotinic acid]
β-arrestin1 translocation in differentiated THP-1 macrophages [2]: led to β-arrestin1 translocation | occurrence of cutaneous vasodilation or flushing side effect [3]: ~80 % of patients | recruitment of β-arrestin1 to the membrane of Langerhans cells (Langerhans cells): robust recruitment | serum FFAs [5]: significant and essentially identical decreases in FFAs | release of radiolabeled eicosanoids in β-arrestin1-deficient cells (peritoneal macrophages; versus wild type): significantly reduced | release of radiolabeled eicosanoids (peritoneal macrophages; wild-type and β-arrestin2-deficient macrophages): increased

Molecule: pertussis toxin
effect on nicotinic acid-stimulated ERK phosphorylation (GPR109A [7]): all but eliminated | MK-0354-induced cAMP decrease, sensitivity to pertussis toxin (GPR109A [8]; agonist MK-0354): sensitive | nicotinic acid-induced cAMP decrease, sensitivity to pertussis toxin (GPR109A [8]; agonist nicotinic acid): sensitive | basal level of phosphorylated cPLA2 after pretreatment (cPLA2): substantially increased
